From patent US8586550B2, “Thiazole derivatives as SGLT2 inhibitors and pharmaceutical composition comprising same” (Green Cross Corporation, priority 2010, dated 2013)

Target: T1, Human SGLT2 (hSGLT2) (Homo sapiens, UniProt P31639)
T1 construct: expressed in transfected cells
T1 sequence (P31639 1-672): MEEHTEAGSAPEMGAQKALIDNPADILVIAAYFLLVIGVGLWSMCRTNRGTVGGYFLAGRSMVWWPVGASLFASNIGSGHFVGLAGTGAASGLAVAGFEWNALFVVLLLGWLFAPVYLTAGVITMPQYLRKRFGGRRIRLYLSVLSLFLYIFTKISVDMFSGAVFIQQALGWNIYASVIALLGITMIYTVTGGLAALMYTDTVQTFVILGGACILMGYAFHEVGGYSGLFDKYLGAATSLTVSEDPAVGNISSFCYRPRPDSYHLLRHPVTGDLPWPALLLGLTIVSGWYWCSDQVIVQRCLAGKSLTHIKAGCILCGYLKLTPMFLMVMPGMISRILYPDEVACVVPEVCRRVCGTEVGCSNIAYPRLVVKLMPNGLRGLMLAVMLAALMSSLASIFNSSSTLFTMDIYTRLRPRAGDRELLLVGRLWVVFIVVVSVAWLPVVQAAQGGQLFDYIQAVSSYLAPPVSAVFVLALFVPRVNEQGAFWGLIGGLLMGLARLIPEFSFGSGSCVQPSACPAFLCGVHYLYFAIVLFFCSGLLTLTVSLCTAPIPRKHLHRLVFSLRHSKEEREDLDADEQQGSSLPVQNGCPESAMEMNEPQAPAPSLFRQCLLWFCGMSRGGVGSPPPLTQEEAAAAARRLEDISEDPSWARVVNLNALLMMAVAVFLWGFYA
Experiment: Sodium-dependent glucose transport (14C-AMG uptake) assay in CHO cells stably expressing hSGLT2
Assay type: cell-based
Conditions: CHO cells expressing hSGLT2, 14C-AMG uptake, 37° C. for 2 h; single determinations; read-out: hSGLT2 Inhibitory Activity IC50
Method in brief: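 Uptake of 14C-α-methyl-D-glucopyranoside (8 μM labeled, 1 mM unlabeled, NaCl buffer pH 7.4) measured over 2 h at 37 °C with inhibitor in hSGLT2-transfected CHO cells after 10 min choline-buffer pretreatment. Radioactivity by liquid scintillation; IC50 from nonlinear regression.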

| SMILES | IC50 [nM] |
| --- | --- |
| COc1cc(Cl)c(Cc2ncc(-c3ccc(F)cc3)s2)cc1[C@@H]1O[C@H](CO)[C@@H](O)[C@H](O)[C@H]1O [Example 74, (2S,3R,4R,5S,6R)-2-(4-Chloro-5-((5-(4-fluorophenyl)thiazol-2-yl)methyl)-2-methoxyphenyl)-6-(hydroxymethyl)tetrahydro-2H-pyran-3,4,5-triol] | 6.08 |
| CCCCCCc1cnc(Cc2cc([C@@H]3O[C@H](CO)[C@@H](O)[C@H](O)[C@H]3O)c(OC)cc2Cl)s1 [Example 75, (2S,3R,4R,5S,6R)-2-(4-Chloro-5-((5-hexylthiazol-2-yl)methyl)-2-methoxyphenyl)-6-(hydroxymethyl)tetrahydro-2H-pyran-3,4,5-triol] | 4.48 |
| COc1cc(Cl)c(Cc2ncc(C3CCCC3)s2)cc1[C@@H]1O[C@H](CO)[C@@H](O)[C@H](O)[C@H]1O [Example 76, (2S,3R,4R,5S,6R)-2-(4-Chloro-5-((5-cyclopentylthiazol-2-yl)methyl)-2-methoxyphenyl)-6-(hydroxymethyl)tetrahydro-2H-pyran-3,4,5-triol] | 9.35 |
| CCOc1cc(Cl)c(Cc2ncc(-c3ccco3)s2)cc1[C@@H]1O[C@H](CO)[C@@H](O)[C@H](O)[C@H]1O [Example 77, (2S,3R,4R,5S,6R)-2-(4-Chloro-2-ethoxy-5-((5-(furan-2-yl)thiazol-2-yl)methyl)phenyl)-6-(hydroxymethyl)tetrahydro-2H-pyran-3,4,5-triol] | 3.98 |
| CCOc1cc(Cl)c(Cc2ncc(-c3ccoc3)s2)cc1[C@@H]1O[C@H](CO)[C@@H](O)[C@H](O)[C@H]1O [Example 78, (2S,3R,4R,5S,6R)-2-(4-Chloro-2-ethoxy-5-((5-(furan-3-yl)thiazol-2-yl)methyl)phenyl)-6-(hydroxymethyl)-tetrahydro-2H-pyran-3,4,5-triol] | 4.35 |
| CCOc1cc(Cl)c(Cc2ncc(-c3cccs3)s2)cc1[C@@H]1O[C@H](CO)[C@@H](O)[C@H](O)[C@H]1O [Example 79, (2S,3R,4R,5S,6R)-2-(4-Chloro-2-ethoxy-5-((5-(thiophen-2-yl)thiazol-2-yl)methyl)phenyl)-6-(hydroxymethyl)tetralrydro-2H-pyran-3,4,5-triol] | 4.29 |
| CCOc1cc(Cl)c(Cc2ncc(-c3ccccc3)s2)cc1[C@@H]1O[C@H](CO)[C@@H](O)[C@H](O)[C@H]1O [Example 81, (2S,3R,4R,5S,6R)-2-(4-Chloro-2-ethoxy-5-((5-phenylthiazol-2-yl)methyl)phenyl)-6-(hydroxymethyl)tetrahydro-2H-pyran-3,4,5-triol] | 2.87 |
| CCOc1cc(Cl)c(Cc2ncc(-c3ccc(F)cc3)s2)cc1[C@@H]1O[C@H](CO)[C@@H](O)[C@H](O)[C@H]1O [Example 82, (2S,3R,4R,5S,6R)-2-(4-Chloro-2-ethoxy-5-((5-(4-fluorophenyl)thiazol-2-yl)methyl)phenyl)-6-(hydroxymethyl)tetrahydro-2H-pyran-3,4,5-triol] | 7.55 |
| C=CCOc1cc(Cl)c(Cc2ncc(-c3ccco3)s2)cc1[C@@H]1O[C@H](CO)[C@@H](O)[C@H](O)[C@H]1O [Example 83, (2S,3R,4R,5S,6R)-2-(2-(Allyloxy)-4-chloro-5-((5-(furan-2-yl)thiazol-2-yl)methyl)phenyl)-6-(hydroxymethyl)tetrahydro-2H-pyran-3,4,5-triol] | 1.24 |
| C=CCOc1cc(Cl)c(Cc2ncc(-c3ccoc3)s2)cc1[C@@H]1O[C@H](CO)[C@@H](O)[C@H](O)[C@H]1O [Example 84, (2S,3R,4R,5S,6R)-2-(2-(Allyloxy)-4-chloro-5-((5-(furan-3-yl)thiazol-2-yl)methyl)phenyl)-6-(hydroxymethyl)tetrahydro-2H-pyran-3,4,5-triol] | 1.54 |
| C=CCOc1cc(Cl)c(Cc2ncc(-c3cccs3)s2)cc1[C@@H]1O[C@H](CO)[C@@H](O)[C@H](O)[C@H]1O [Example 85, (2S,3R,4R,5S,6R)-2-(2-(Allyloxy)-4-chloro-5-((5-(thiophen-2-yl)thiazol-2-yl)methyl)phenyl)-6-(hydroxymethyl)tetrahydro-2H-pyran-3,4,5-triol] | 1.69 |
| C=CCOc1cc(Cl)c(Cc2ncc(-c3ccsc3)s2)cc1[C@@H]1O[C@H](CO)[C@@H](O)[C@H](O)[C@H]1O [Example 86, (2S,3R,4R,5S,6R)-2-(2-(Allyloxy)-4-chloro-5-((5-(thiophen-3-yl)thiazol-2-yl)methyl)phenyl)-6-(hydroxymethyl)tetrahydro-2H-pyran-3,4,5-triol] | 0.934 |
| C=CCOc1cc(Cl)c(Cc2ncc(-c3ccccc3)s2)cc1[C@@H]1O[C@H](CO)[C@@H](O)[C@H](O)[C@H]1O [Example 87, (2S,3R,4R,5S,6R)-2-(2-(Allyloxy)-4-chloro-5-((5-phenylthiazol-2-yl)methyl)phenyl)-6-(hydroxymethyl)tetrahydro-2H-pyran-3,4,5-triol] | 3.38 |
| C=CCOc1cc(Cl)c(Cc2ncc(-c3ccc(F)cc3)s2)cc1[C@@H]1O[C@H](CO)[C@@H](O)[C@H](O)[C@H]1O [Example 88, (2S,3R,4R,5S,6R)-2-(2-(Allyloxy)-4-chloro-5-((5-(4-fluorophenyl)thiazol-2-yl)methyl)phenyl)-6-(hydroxymethyl)tetrahydro-2H-pyran-3,4,5-triol] | 4.22 |
| OC[C@H]1O[C@@H](c2cc(Cc3ncc(-c4ccco4)s3)cc3ccccc23)[C@H](O)[C@@H](O)[C@@H]1O [Example 93, (2S,3R,4R,5S,6R)-2-(3-((5-(Furan-2-yl)thiazol-2-yl)methyl)naphthalen-1-yl)-6-(hydroxymethyl)tetrahydro-2H-pyran-3,4,5-triol] | 14.3 |
| OC[C@H]1O[C@@H](c2cc(Cc3ncc(-c4cccs4)s3)cc3ccccc23)[C@H](O)[C@@H](O)[C@@H]1O [Example 94, (2R,3S,4R,5R,6S)-2-(Hydroxymethyl)-6-(3-((5-(thiophen-2-yl)thiazol-2-yl)methyl)naphthalen-1-yl)tetrahydro-2H-pyran-3,4,5-triol] | 5.98 |
| COc1c(Cc2ncc(-c3ccco3)s2)cc([C@@H]2O[C@H](CO)[C@@H](O)[C@H](O)[C@H]2O)c2ccccc12 [Example 95, (2S,3R,4R,5S,6R)-2-(3-((5-(Furan-2-yl)thiazol-2-yl)methyl)-4-methoxynaphthalen-1-yl)-6-(hydroxymethyl)-tetrahydro-2H-pyran-3,4,5-triol] | 2.94 |
| COc1c(Cc2ncc(-c3cccs3)s2)cc([C@@H]2O[C@H](CO)[C@@H](O)[C@H](O)[C@H]2O)c2ccccc12 [Example 96, (2R,3S,4R,5R,6S)-2-(Hydroxymethyl)-6-(4-methoxy-3-((5-(thiophen-2-yl)thiazol-2-yl)methyl)naphthalen-1-yl)-tetrahydro-2H-pyran-3,4,5-triol] | 4.94 |
| COc1c(Cc2ncc(-c3ccccc3)s2)cc([C@@H]2O[C@H](CO)[C@@H](O)[C@H](O)[C@H]2O)c2ccccc12 [Example 97, (2R,3S,4R,5R,6S)-2-(Hydroxymethyl)-6-(4-methoxy-3-((5-phenylthiazol-2-yl)methyl)naphthalen-1-yl)-tetrahydro-2H-pyran-3,4,5-triol] | 6.77 |
| COc1c(Cc2ncc(C)s2)cc([C@@H]2O[C@H](CO)[C@@H](O)[C@H](O)[C@H]2O)c2ccccc12 [Example 98, (2R,3S,4R,5R,6S)-2-(Hydroxymethyl)-6-(4-methoxy-3-((5-methylthiazol-2-yl)methyl)naphthalen-1-yl)-tetrahydro-2H-pyran-3,4,5-triol] | 29.9 |
| CCCCCCCc1cnc(Cc2cc([C@@H]3O[C@H](CO)[C@@H](O)[C@H](O)[C@H]3O)c3ccccc3c2OC)s1 [Example 100, (2S,3R,4R,5S,6R)-2-(3-((5-Heptylthiazol-2-yl)methyl)-4-methoxynaphthalen-1-yl)-6-(hydroxymethyl)-tetrahydro-2H-pyran-3,4,5-triol] | 7.3 |
| COc1c(Cc2ncc(C3CCCC3)s2)cc([C@@H]2O[C@H](CO)[C@@H](O)[C@H](O)[C@H]2O)c2ccccc12 [Example 101, (2S,3R,4R,5S,6R)-2-(3-((5-Cyclopentylthiazol-2-yl)methyl)-4-methoxynaphthalen-1-yl)-6-(hydroxymethyl)-tetrahydro-2H-pyran-3,4,5-triol] | 26.8 |
| COc1c(Cc2ncc(C3CCCCC3)s2)cc([C@@H]2O[C@H](CO)[C@@H](O)[C@H](O)[C@H]2O)c2ccccc12 [Example 102, (2S,3R,4R,5S,6R)-2-(3-((5-Cyclohexylthiazol-2-yl)methyl)-4-methoxynaphthalen-1-yl)-6-(hydroxymethyl)-tetrahydro-2H-pyran-3,4,5-triol] | 50.3 |
| CCOc1cnc(Cc2cc([C@@H]3O[C@H](CO)[C@@H](O)[C@H](O)[C@H]3O)c3ccccc3c2OC)s1 [Example 103, (2S,3R,4R,5S,6R)-2-(3-((5-Ethoxythiazol-2-yl)methyl)-4-methoxynaphthalen-1-yl)-6-(hydroxymethyl)-tetrahydro-2H-pyran-3,4,5-triol] | 51.8 |
